Assay results published in patent publication US8034923B1, “Reagents for reversibly terminating primer extension” (priority 2009, dated 2011).

Key:
[1] = Cleavage of 3′-O-aminothymidine 1b with aqueous HONO and no cosolvent; assay type: physicochemical
Method: (§1) To an aqueous solution of 3′-O-aminothymidine (1b, 20 mM, 2 μL) was added aqueous nitrous acid (350-700 mM NaNO2/1 M NaOAc, 50 μL, pH 5.5-5.75). The resulting pH was measured with a microelectrode (accuracy ca. ±0.02). After 1 or 2 min at room temperature, the reaction was quenched by the addition of K-phosphate buffer (1 M, 200 μL, pH 7), and analyzed by analytical reverse-phase HPLC (Waters NovaPak C-18 4 μm, 3.9×150 mm, with guard column Waters NovaPak C-18 4 μm, 3.9×15 mm, eluent A=25 mM TEAA pH 7, eluent B=acetonitrile, gradient from 3% B to 13% B in 20 min, flow rate=0.5 mL/min, Rt=product: 8 min; starting material: 11 min.). The amount of cleavage was determined by integrating (267 nm) the peaks of the remaining 1b and the product (thymidine). The rates are as follows: As control, the natural nucleosides were treated as follows: An aqueous solution of 2′-deoxyguanosine or 2′-deoxyadenosine or 2′-deoxycytidine (20 mM, 30 μL) was treated with aqueous nitrous acid (700 mM NaNO2, 1 M NaOAc, pH 5.5, 500 μL) at room temperature for 72 h (i.e. 4320 min). An aliquot (50 μL) was removed, neutralized by the addition of K-phosphate buffer (1 M, 200 μL, pH 7), and analyzed by analytical reverse-phase HPLC (Waters NovaPak C-18 4 μm, 3.9×150 mm, with guard column Waters NovaPak C-18 4 μm, 3.9×15 mm. eluent A=25 mM TEAA pH 7, eluent B=acetonitrile, gradient from 0% B to 3% B in 10 min, then to 30% B in 20 min, flow rate=0.5 mL/min, Rt=dG: 14 min, dA: 18 min, dC: 8 min). The amount of decomposition was determined by integrating (260 nm) the peaks of the remaining starting material (nucleoside) and the product(s).

[2] = Treatment of natural nucleosides with aqueous nitrous acid (control, decomposition by HPLC); assay type: physicochemical; conditions: 700 mM NaNO2, 1 M NaOAc, pH 5.5, room temperature; for oxidation 2 min (extrapolated): extrapolated to 2 min
Method: as §1

[3] = biological target: Terminal Transferase (TdT) (Bos taurus, UniProt P06526); assay: Tailing of reversible terminators using terminal transferase; assay type: biochemical; conditions: 5 μM to 250 μM terminator, 37° C., 1 hour, 8% PAGE
Terminal Transferase (TdT), sequence (P06526 whole entry): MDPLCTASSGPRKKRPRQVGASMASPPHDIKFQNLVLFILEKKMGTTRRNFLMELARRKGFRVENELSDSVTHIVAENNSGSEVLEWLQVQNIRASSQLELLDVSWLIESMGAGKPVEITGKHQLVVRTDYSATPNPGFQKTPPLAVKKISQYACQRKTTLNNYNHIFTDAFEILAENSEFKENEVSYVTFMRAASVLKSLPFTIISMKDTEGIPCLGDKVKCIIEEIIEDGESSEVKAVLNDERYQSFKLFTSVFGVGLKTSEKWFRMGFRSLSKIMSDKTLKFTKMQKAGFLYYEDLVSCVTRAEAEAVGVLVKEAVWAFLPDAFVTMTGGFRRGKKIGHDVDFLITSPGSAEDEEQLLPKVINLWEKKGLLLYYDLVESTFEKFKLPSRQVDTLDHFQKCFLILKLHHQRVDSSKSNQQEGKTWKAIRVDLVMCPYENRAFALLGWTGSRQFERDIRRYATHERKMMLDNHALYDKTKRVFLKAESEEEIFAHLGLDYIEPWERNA
Method: The oligonucleotide SEQ ID 1 was ^32P-5′ labeled using OptiKinase (USB Corporation). Pyrimidine tailing buffer reactions (20 μL) contained 100 mM cacodylate buffer (pH 7.1), 2 mM CoCl2, 0.1 mM DTT, […] of radiolabeled template (0.5 μM), 10 units of Terminal Transferase (TdT), and varying amounts of reversible terminator from 5 μM to 250 μM. Samples were incubated at 37° C. for 1 hour and were terminated by heating at 70° C. for 10 min. Samples were resolved on 8% PAGE. […] If treated with TdT and a composition of the instant invention, the ssDNA would be derivatized with a 3′-ONH2 group. This could then be captured by an aldehyde affixed to a solid support.

[4] = biological target: T1, PD-42 (Taq A597T, L616A, F667Y, E745H) (Thermus aquaticus, UniProt P19821, A597T/E745H/F667Y/L616A); assay: Primer extension / fidelity test with PD-42; assay type: biochemical; conditions: 100 μM, 72° C.
T1 construct: made in house; pASK-IBA43plus vector
T1 sequence (P19821 whole entry A597T/L616A/F667Y/E745H): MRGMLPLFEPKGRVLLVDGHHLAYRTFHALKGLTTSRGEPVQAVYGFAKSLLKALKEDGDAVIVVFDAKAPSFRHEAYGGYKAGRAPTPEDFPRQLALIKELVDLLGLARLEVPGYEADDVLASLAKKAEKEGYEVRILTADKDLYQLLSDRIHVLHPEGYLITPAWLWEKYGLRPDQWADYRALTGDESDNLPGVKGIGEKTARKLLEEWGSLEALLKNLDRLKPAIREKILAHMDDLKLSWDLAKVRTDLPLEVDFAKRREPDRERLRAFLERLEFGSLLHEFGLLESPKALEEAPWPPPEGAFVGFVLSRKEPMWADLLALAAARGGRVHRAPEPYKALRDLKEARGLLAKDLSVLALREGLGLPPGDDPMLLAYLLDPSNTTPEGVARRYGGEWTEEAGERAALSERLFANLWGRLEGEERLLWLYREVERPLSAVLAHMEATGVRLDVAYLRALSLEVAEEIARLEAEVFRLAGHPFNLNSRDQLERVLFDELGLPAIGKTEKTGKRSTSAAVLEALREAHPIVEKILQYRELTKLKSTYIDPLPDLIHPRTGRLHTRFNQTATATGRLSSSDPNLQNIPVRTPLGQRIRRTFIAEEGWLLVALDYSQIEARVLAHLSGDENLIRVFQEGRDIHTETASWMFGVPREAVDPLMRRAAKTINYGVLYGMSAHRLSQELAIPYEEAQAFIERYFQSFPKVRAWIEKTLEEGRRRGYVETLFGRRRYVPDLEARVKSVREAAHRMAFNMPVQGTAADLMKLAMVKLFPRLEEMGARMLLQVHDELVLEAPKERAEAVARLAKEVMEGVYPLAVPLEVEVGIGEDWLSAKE
Method: (§2) Gamma-^32P-labeled primer SEQ ID 1 (2.5 pmol), cold primer SEQ ID 1 (22.5 pmol) and template SEQ ID 2 (30 pmol) were annealed by incubation at 95° C. for […] in NEB ThermoPol Reaction Buffer (20 mM Tris-HCl, 10 mM KCl, 10 mM (NH4)2SO4, 2 mM MgSO4, 0.1% TritonX-100) and slowly cooled to room temperature, followed by the addition of Taq cell-free extract (4 μL, the sole source of polymerase). Then, the mixture (final volume 10 μL) was pre-heated to 72° C. (30 sec), and the extension was initiated by adding either reversibly terminated or irreversibly terminated nucleoside triphosphates (final concentration of 100 μM) or both. After 2 mM, the reaction was quenched by 10 mM EDTA in formamide loading buffer (20 μL) and was resolved on a 14% PAGE (FIGS. 8 and 9).
In a 10 μL reaction volume, γ^32P-labeled primer SEQ ID 1([…]), cold primer SEQ ID 1 ([…]) and four kinds of 36 nt long template ([…]) (see above) were annealed respectively by incubation at 95° C. for 5 min and slow cooled to room temperature. 1 (0.25 μg/μL) of PD-42 and 58 (polymerases were purified by Qiagen Ni-NTA Spin Kit) were then added to reactions and incubated at 72° C. for 2 min. Reactions were initiated by the addition of dNTP-ONH2 or ddNTP (Final concentration of 100 μM) (refer to FIG. 13 for specifics) and were resolved on a 14% PAGE.
Two of the 93 variants that performed well with both dTTP-3′-ONH2 and ddTTP were further examined: PD-42 (A597T, L616A, F667Y, E745H) and PD-58 (E520G, K540I, L616A).

[5] = biological target: T2, Taq polymerase from New England Biolabs (Thermus aquaticus, UniProt P19821); assay: Standing start primer-extension assay; assay type: biochemical; conditions: 100 μM triphosphate, 72° C., 2 min
T2 construct: purchased New England Biolabs
T2 sequence (P19821 whole entry): as the sequence (P19821 whole entry A597T/L616A/F667Y/E745H) above, with T597A, A616L, Y667F, H745E counted along it
Method: as §2
(§3) 93 Taq polymerase variants from PD library (Table 1) were tested for their ability to incorporate TTP-ONH2. Co-Taq polymerase and the Taq polymerase from New England Biolabs were also tested in parallel as controls. […] Of these variants, eight extended the primer by more than 50% to N+1, performing better than Co-Taq.

[6] = system: 93 Taq polymerase variants from PD library; assay: Standing start primer-extension assay, PD library screen; assay type: biochemical; conditions: 100 μM triphosphate, 72° C., 2 min
Method: as §2, §3
To explore the potential of these variant polymerases to incorporate the corresponding 2′-, 3′-dideoxynucleotide, they were challenged with ddTTP (FIG. 9). A total of 27 variant polymerases were able to incorporate ddTTP to a detectable extent, while three of these variants converted more than 50% of the primer to n+1 product.

[7] = biological target: T3, PD-58 (E520G, K540I, L616A) (Thermus aquaticus, UniProt P19821, E520G/K540I/L616A); assay: Primer extension / fidelity test with PD-58; assay type: biochemical; conditions: 100 μM, 72° C.
T3 construct: made in house; pASK-IBA43plus vector
T3 sequence (P19821 whole entry E520G/K540I/L616A): as the sequence (P19821 whole entry A597T/L616A/F667Y/E745H) above, with E520G, K540I, T597A, Y667F, H745E counted along it
Method: To determine whether HONO could cleave the 3′-terminal ONH2 group from a template-bound oligonucleotide and permit subsequent primer extension in a cycle of the type needed for sequencing using cyclic reversible termination, a 5′-biotinylated template that called for incorporation of two consecutive T's opposite the two consecutive template A′ s was used. Streptavidin on magnetic beads was used to recover products. In the first cycle, beads were incubated (72° C., 2 min) with PD-58 polymerase in the presence of T-ONH2 triphosphate (100 μM). Then, the products were treated with buffered sodium nitrite/HONO to cleave the —ONH2 group, generating a free 3′-OH group. […] This was indicated by a slower moving band arising from the reversibly terminated N+1 product.
as §2, with “After 2 mM, the reaction was quenched by 10 mM EDTA in formamide loading buffer (20 μL) and was resolved on a 14% PAGE (FIGS. 8 and 9).” left out

[8] = [HONO] 700 mM, pH 5.50, room temperature

Cc1cn([C@H]2C[C@H](ON)[C@@H](CO)O2)c(=O)[nH]c1=O [1b, 3′-O-aminothymidine]
cleavage 2 min ([1]; [HONO] 350 mM, pH 5.50, room temperature): 90%
cleavage 1 min [1, 8]: 98%
cleavage 2 min [1, 8]: >99%
cleavage 2 min ([1]; [HONO] 700 mM, pH 5.65, room temperature): 96%

Nc1ccn([C@H]2C[C@H](O)[C@@H](CO)O2)c(=O)n1 [dC, 2′-deoxycytidine]
oxidation 72 h [2]: 15%
oxidation 2 min (extrapolated) [2]: <1/10000

NO[C@H]1C[C@H](n2cnc3c(=O)[nH]c(N)nc32)O[C@@H]1COP(=O)(O)OP(=O)(O)OP(=O)(O)O [dGTP-ONH2, 3′-O-Amino-2′-deoxyguanosine-5′-triphosphate]
primer consumption on TdT tailing [3]: Almost all of the primer was exhausted

Nc1nc2c(ncn2[C@H]2C[C@H](O)[C@@H](CO)O2)c(=O)[nH]1 [dG, 2′-deoxyguanosine]
oxidation 72 h [2]: 20%
oxidation 2 min (extrapolated) [2]: <1/10000

Nc1ncnc2c1ncn2[C@H]1C[C@H](O)[C@@H](CO)O1 [dA, 2′-deoxyadenosine]
oxidation 72 h [2]: 13%
oxidation 2 min (extrapolated) [2]: <1/10000

NO[C@H]1C[C@H](n2ccc(N)nc2=O)O[C@@H]1COP(=O)(O)OP(=O)(O)OP(=O)(O)O [dCTP-ONH2, 3′-O-Amino-2′-deoxycytidine-5′-triphosphate]
primer consumption on TdT tailing [3]: almost all of the primer was remaining
misincorporation product opposite template dC by PD-42 ([4]; PAGE): trace amounts of products

Cc1cn([C@H]2C[C@H](ON)[C@@H](COP(=O)(O)OP(=O)(O)OP(=O)(O)O)O2)c(=O)[nH]c1=O [TTP-ONH2, 3′-O-Amino-thymidine-5′-triphosphate]
N+1 product on incorporation [5]: at most a trace of N+1 product
number of variant polymerases able to incorporate better than NEB Taq [6]: 30
number of variants that extended more than 50% of the primer to N+1 [6]: eight
share of the PD library mutants able to incorporate better than NEB Taq [6]: 32.3%
incorporation by PD-42 ([4]; PD library screen): best incorporation
incorporation by PD-58 ([7]; PD library screen): best incorporation
primer extension and termination by PD-58 ([7]; template on streptavidin magnetic beads, 2 min): clean N+1 products

NO[C@H]1C[C@H](n2cnc3c(N)ncnc32)O[C@@H]1COP(=O)(O)OP(=O)(O)OP(=O)(O)O [dATP-ONH2, 3′-O-Amino-2′-deoxyadenosine-5′-triphosphate]
misincorporation product opposite template A (SEQ ID 3) by PD-42 ([4]; PAGE): trace amounts of products

Cc1cn([C@H]2CC[C@@H](COP(=O)(O)OP(=O)(O)OP(=O)(O)O)O2)c(=O)[nH]c1=O [ddTTP, 2′,3′-dideoxythymidine-5′-triphosphate, reference compound]
number of variant polymerases able to incorporate to a detectable extent [6]: 27
number of variants that extended more than 50% of the primer to N+1 [6]: three
